How the values were obtained:
[1] = tested on: recombinant HpG6PD (H. pylori glucose-6-phosphate dehydrogenase); assay: High-throughput screening of HpG6PD residual activity at 400 μM; type: biochemical, Helicobacter pylori; conditions: 400 μM compound, 5% DMSO, 0.2 mg/mL HpG6PD, 37 °C for two hours
Procedure: (§1) Enzymatic activity was spectrophotometrically determined following the reduction of NADP^+ at 340 nm. The standard reaction mix contains 50 mM Tris-HCl, pH 7.6, 3 mM MgCl2, 200 µM glucose 6 phosphate and 100 µM NADP^+. The reaction was started with the addition of 1 µg of the purified HpG6PD. One unit of activity was defined as the amount of HpG6PD that catalyzes the oxidation of 1 µmol of glucose 6 phosphate per minute.
A chemical library of 55 compounds was evaluated through high-throughput screening (HTS) assays to determine those compounds with the ability to reduce the catalytic activity of the recombinant HpG6PD. Dr. Gabriel Navarrete-Vázquez from the Pharmacy Faculty of the Autonomous University of the State of Morelos provided the chemical compounds [32]. These compounds were selected based on the previously reported chemical inhibitors of human G6PD [21], prepared at a final concentration of 400 μM in 5% dimethyl sulfoxide (DMSO) (Sigma Aldrich, St. Louis, MO, USA), incubated with 0.2 mg/mL of HpG6PD (200 ng total) at 37 °C for two hours, and the HpG6PD residual activity was measured. In addition, the HpG6PD protein was incubated with 5% DMSO and used as a control.

[2] = molecular target: recombinant human HsG6PD (Homo sapiens, UniProt P11413); assay: Inhibition of recombinant human HsG6PD at 400 μM; type: biochemical; conditions: 400 μM compound
Chain of recombinant human HsG6PD (P11413 whole entry): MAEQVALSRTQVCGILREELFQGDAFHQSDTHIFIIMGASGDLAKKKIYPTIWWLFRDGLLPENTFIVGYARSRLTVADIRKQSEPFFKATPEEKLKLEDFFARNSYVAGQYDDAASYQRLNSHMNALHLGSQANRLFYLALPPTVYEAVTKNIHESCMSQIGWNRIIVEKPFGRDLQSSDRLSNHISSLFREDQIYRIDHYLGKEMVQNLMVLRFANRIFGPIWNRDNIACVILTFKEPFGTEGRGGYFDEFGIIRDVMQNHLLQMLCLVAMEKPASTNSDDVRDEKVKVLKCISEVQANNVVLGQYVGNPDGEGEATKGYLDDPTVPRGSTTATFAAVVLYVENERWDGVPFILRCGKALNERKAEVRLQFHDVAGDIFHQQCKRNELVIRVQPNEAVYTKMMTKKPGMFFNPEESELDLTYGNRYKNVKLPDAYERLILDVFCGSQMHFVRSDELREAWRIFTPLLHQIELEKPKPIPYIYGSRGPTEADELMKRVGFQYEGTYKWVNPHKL

[3] = molecular target: HpG6PD enzyme (Helicobacter pylori, UniProt P56110); assay: Inactivation assays of the HpG6PD enzyme with increasing concentrations of compounds; type: biochemical; conditions: for inhibition at 800 µM: 2 h, read-out: loss of HpG6PD activity; for IC50: from plots of residual activity after incubation for 2 h at 37 °C, 200 μg/mL HpG6PD; for reduction of HpG6PD activity: at the highest concentration tested
Chain of HpG6PD enzyme (P56110 whole entry): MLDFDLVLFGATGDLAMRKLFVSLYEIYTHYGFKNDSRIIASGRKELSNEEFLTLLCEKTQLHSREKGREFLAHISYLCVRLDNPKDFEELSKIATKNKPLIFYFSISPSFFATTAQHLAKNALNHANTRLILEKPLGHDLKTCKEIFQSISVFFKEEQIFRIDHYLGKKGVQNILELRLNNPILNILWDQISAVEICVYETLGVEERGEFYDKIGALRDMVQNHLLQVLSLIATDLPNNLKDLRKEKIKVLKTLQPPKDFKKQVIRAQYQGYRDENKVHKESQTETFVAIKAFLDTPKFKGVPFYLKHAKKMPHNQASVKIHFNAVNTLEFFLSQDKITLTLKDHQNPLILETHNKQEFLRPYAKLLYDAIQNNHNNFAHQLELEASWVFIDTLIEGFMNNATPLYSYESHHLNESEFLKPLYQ
Procedure: Subsequently, we performed inactivation assays using different concentrations of compounds to analyze their concentration–activity effect. […] As each of the compound’s concentrations was increased, the residual HpG6PD activity decreased in different degrees. For example, the exposure of the HpG6PD enzyme to YGC-3 and YGC-4 induced the abolition of the enzyme activity in a very similar manner (Figure 3A), the HpG6PD enzyme lost 80% of its activity at 800 µM, but when the enzyme was incubated with YGC-1, we observed a 91% loss in activity at 800 μM. On the other hand, MGD-1 and MGD-2 inactivated the HpG6PD enzyme, with 80% and 72% reductions, respectively, at the highest concentration tested (Figure 3B). […] In contrast, JMM-3 inhibited the HpG6PD enzyme at 80% with 800 µM (Figure 3D).
Figure 3 Inactivation assays of the HpG6PD enzyme with chemical compounds. The HpG6PD protein was adjusted at a final concentration of 200 μg/mL and incubated with increasing concentrations of the (A) YGC family; (B) MGD family; (C) TDA-1 compound; and (D) JMM-3 compound. The residual activity was determined after 2 h of incubation at 37 °C. […] The values represent the mean ± standard deviation from three independent experiments, and standard errors were lower than 5%.
as §1

## COc1ccc(/C=C2\SC(=O)NC2=O)cc1Oc1nc2ccccc2[nH]1 [YGC-4]
[1]
  HpG6PD Inhibition (%) at (400 μM): 44%
[2]
  inhibition at 400 µM: 18%
[3]
  inhibition at 800 µM: 80%
  IC50: 500 µM

## COc1cc(CCC(=O)O)ccc1OCc1ccc(-c2ccccc2C#N)cc1 [JMM-3]
[1]
  HpG6PD Inhibition (%) at (400 μM): 67%
[2]
  inhibition at 400 µM: 3%
[3]
  inhibition at 800 µM: 80%
  IC50: 304 µM

## COc1ccc(/C=C2\SC(=O)NC2=O)cc1OCc1cccc2ccccc12 [YGC-1]
[1]
  HpG6PD Inhibition (%) at (400 μM): 84%
[2]
  inhibition at 400 µM: 8%
[3]
  inhibition at 800 µM: 91%
  IC50: 310 µM

## COc1ccc(/C=C2\SC(=O)NC2=O)cc1OCc1cccc(-c2ccccc2)c1 [YGC-3]
[1]
  HpG6PD Inhibition (%) at (400 μM): 50%
[2]
  inhibition at 400 µM: 0%
[3]
  inhibition at 800 µM: 80%
  IC50: 383 µM

## COc1cc(/C=C2\SC(=O)NC2=O)ccc1OCCN1CCCCC1 [TDA-1]
[1]; 400 µM
  HpG6PD Inhibition (%) at (400 μM): 91%
[2]
  inhibition at 400 µM: 10%
[3]; by 500 µM, incubation for 2 h at 37 °C
  loss of HpG6PD activity: total loss of activity
[3]
  IC50: 204 µM

## O=C(O)CCc1ccc(NC(=O)CSc2nc3ccccc3[nH]2)cc1 [MGD-1]
[1]
  HpG6PD Inhibition (%) at (400 μM): 50%
[2]
  inhibition at 400 µM: 4%
[3]; incubation for 2 h at 37 °C
  reduction of HpG6PD activity: 80%
[3]
  IC50: 465 µM

## O=C(O)CCc1ccc(NC(=O)CSc2nc3ccccc3o2)cc1 [MGD-2]
[1]
  HpG6PD Inhibition (%) at (400 μM): 55%
[2]
  inhibition at 400 µM: 2%
[3]; incubation for 2 h at 37 °C
  reduction of HpG6PD activity: 72%
[3]
  IC50: 340 µM

From paper PMC8401736, “Identification and In Silico Characterization of Novel Helicobacter pylori Glucose-6-Phosphate Dehydrogenase Inhibitors” (Molecules, 2021)
